Laboratory results published in the NIST ThermoML archive (doi:10.1016/j.jct.2005.10.018).
Numbers after ± are expanded uncertainties.

Conditions: 298.15 K; 101.33 kPa; Liquid; Vibrating tube method

mass density | Compound
866.84 ± 0.3 kg/m3 | C=C1CC[C@H]2C[C@@H]1C2(C)C [(1S,5S)-6,6-dimethyl-2-methylenebicyclo[3.1.1]heptane]
837.31 ± 0.85 kg/m3 | C=C(C)[C@H]1CC=C(C)CC1 [(R)-1-methyl-4-(1-methylethenyl)cyclohexene]
785.24 ± 0.16 kg/m3 | CCO [ethanol]
853.88 ± 0.3 kg/m3 | CC1=CC[C@H]2C[C@@H]1C2(C)C [(S)-2-pinene]
